The target of one assay is T1, TRKA (Homo sapiens, UniProt P04629).
T1 construct: purchased life technologies PV3144
The assay can be described thus: Z′-LYTE kinase activity assay, TRKA. The assay is classed as biochemical. The following applies: ATP 400 uM. An excerpt:
(§1) Kinase activity assay: Z′-LYTE™ technology (detection by fluorescence, enzyme-conjugated format, based on the difference in sensitivity of phosphorylated and non-phosphorylated peptides to proteolytic cleavage) was applied, and using the principle of fluorescence resonance energy transfer (FRET), a Z′-LYTE™ FRET peptide substrate (Z′-LYTE™ Tyrosine 1 Peptide Substrate, Invitrogen, PV3190), and a secondary reaction were used to detect the inhibitory activity of the compounds on TRKs (TRK1, TRK2, TRK3) (life technologies, PV3144, PV3616, PV3617).
(§2) Enzymatic reaction: In a 384-well plate, 5 μL of an enzyme-substrate system (50 mM HEPES pH 7.5, 0.01% BRIJ-35, 10 mM MgCl2, 1 mM EGTA, 2 μM Tyr 01 Peptide Substrate) was added and 5 nL of compound (concentration gradient) was transferred thereto by using the echo520 ultramicro liquid pipetting system. […] After shaking and mixing, centrifuging was performed. A reaction was carried out at 30° C. in the dark for 1.5 hours.
(§3) The data were analyzed as follows:
(§4) Phosphorylation ratio=1−{(emission ratio×F100%−C100%)/[C0%−C100%+emission ratio×(F100%−F0%)]}×100;
(§5) Inhibition rate=100×(1−compound phosphorylation ratio/negative control phosphorylation ratio).
(§6) IC50 values were calculated by using GraphPad Prism 5.0 software.

A further assay addresses T2, BaF3-ETV6-NTRK2 (Homo sapiens, UniProt Q16620).
T2 construct: fused on or other part: P41212 (Transcription factor ETV6)
The assay can be described thus: Cell proliferation inhibition (CCK-8), BaF3-ETV6-NTRK2 stable strain. The assay is classed as cell-based, mouse. The following applies: BaF3-ETV6-NTRK2, 72 hours. As to the method: (§7) The brief steps of stable strain construction are as follows: construct a pCDNA3.1(+) plasmid vector carrying genes such as CD74-NTRK1, ETV6-NTRK2 and ETV6-NTRK3; the plasmid was electroporated into Ba/F3 cells using the Amaxa® Cell Line Nucleofector® Kit V; 48 hours after electroporated, G418 with a final concentration of 1000 μg/ml was added for screening for two weeks, and then IL3 was removed, and continued screening to obtain polyclonal stable strains; then single clones were selected by a limiting dilution method. The stable strains were then identified using positive drugs, WB and gene sequencing; and the monoclonal clones that were identified as completely correct may be used for the study of cell proliferation inhibitory activity of inhibitors.
(§8) Cell proliferation inhibition activity study: the cells in the logarithmic growth phase were seeded into 96-well plates at 8000-12000 cells/well, and inhibitors at different concentrations (0-10 μM) were added the next day, and incubation was continued for 72 hours; then 10 μL of CCK-8 reagent was added to each well, and the incubation was continued for 1-3 hours; and then use a super microplate reader to measure their absorbance values at 450 nm and 650 nm. The half-inhibition concentration (IC50) was calculated using GraphPad Prism 8.0.0.

A further assay concerns the target T3, TRKB (Homo sapiens, UniProt Q16620).
T3 construct: purchased life technologies PV3616
The experiment in a line: Z′-LYTE kinase activity assay, TRKB. The assay is classed as biochemical. The following applies: ATP 25 uM.
Excerpt: as §1, §2, §3, §4, §5, §6

Another assay has as its target T4, TRKC (Homo sapiens, UniProt Q16288).
T4 construct: purchased life technologies PV3617
The assay can be described thus: Z′-LYTE kinase activity assay, TRKC. The following applies: ATP 50 uM. The assay is classed as biochemical.
Excerpt: as §1, §2, §3, §6

A further assay has as its target T5, BaF3-CD74-NTRK1 (Homo sapiens, UniProt P04629).
T5 construct: fused on or other part: P04233 (HLA class II histocompatibility antigen gamma chain)
The assay can be described thus: Cell proliferation inhibition (CCK-8), BaF3-CD74-NTRK1 stable strain. The assay is classed as cell-based, mouse. The following applies: BaF3-CD74-NTRK1, 72 hours. As to the method:
as §7, §8

A further assay concerns the target T6, BaF3-ETV6-NTRK3 (Homo sapiens, UniProt Q16288).
T6 construct: fused on or other part: P41212 (Transcription factor ETV6)
The assay can be described thus: Cell proliferation inhibition (CCK-8), BaF3-ETV6-NTRK3 stable strain. The assay is classed as cell-based, mouse. The following applies: BaF3-ETV6-NTRK3, 72 hours. As to the method:
as §7, §8

T5 sequence (P04629 510-796 limits assumed): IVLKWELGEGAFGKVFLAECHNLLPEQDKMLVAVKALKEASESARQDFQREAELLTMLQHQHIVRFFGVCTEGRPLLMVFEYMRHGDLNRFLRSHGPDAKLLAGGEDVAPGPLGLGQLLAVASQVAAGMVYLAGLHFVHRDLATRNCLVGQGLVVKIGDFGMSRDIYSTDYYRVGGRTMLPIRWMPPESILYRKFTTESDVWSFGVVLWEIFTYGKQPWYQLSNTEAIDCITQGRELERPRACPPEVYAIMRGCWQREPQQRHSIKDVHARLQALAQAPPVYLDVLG
T2 sequence (Q16620 538-822 limits assumed): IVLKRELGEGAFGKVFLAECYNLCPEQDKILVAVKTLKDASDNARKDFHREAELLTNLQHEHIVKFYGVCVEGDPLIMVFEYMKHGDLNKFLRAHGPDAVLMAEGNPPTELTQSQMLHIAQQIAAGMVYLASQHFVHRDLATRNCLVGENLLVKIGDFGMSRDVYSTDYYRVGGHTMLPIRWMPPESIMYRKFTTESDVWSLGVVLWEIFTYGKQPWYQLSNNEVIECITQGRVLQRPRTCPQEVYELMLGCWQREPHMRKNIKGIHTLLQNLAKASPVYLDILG
T1 sequence (P04629 440-796 limits assumed): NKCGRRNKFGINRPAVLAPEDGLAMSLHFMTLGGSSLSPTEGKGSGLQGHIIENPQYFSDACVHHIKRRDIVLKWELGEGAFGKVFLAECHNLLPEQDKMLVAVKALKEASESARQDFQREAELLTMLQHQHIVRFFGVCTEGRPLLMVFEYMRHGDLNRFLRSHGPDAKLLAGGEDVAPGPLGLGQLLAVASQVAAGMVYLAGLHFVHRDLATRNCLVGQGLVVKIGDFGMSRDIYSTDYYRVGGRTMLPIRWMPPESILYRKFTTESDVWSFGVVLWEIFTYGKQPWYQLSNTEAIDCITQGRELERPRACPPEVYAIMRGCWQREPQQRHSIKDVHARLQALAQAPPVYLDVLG
T3 sequence (Q16620 32-822): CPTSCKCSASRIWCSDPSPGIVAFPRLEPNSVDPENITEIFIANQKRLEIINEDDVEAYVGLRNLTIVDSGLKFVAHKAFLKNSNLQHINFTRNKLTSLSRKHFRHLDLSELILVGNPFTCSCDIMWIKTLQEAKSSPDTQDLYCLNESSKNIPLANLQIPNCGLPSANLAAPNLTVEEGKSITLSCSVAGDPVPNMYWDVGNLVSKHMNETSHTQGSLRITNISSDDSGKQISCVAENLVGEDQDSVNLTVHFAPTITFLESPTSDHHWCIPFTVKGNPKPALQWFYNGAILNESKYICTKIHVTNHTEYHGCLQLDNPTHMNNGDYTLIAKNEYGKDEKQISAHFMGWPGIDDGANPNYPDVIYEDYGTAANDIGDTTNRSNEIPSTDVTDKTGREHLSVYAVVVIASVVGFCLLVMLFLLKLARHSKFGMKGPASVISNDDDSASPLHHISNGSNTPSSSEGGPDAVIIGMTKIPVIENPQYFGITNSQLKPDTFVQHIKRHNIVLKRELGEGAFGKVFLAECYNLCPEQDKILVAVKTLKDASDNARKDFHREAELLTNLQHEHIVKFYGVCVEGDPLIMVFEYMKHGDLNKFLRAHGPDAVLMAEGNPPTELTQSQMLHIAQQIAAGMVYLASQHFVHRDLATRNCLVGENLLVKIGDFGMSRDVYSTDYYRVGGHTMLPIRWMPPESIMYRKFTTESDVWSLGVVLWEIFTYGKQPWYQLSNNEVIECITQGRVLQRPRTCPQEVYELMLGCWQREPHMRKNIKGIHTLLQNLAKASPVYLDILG
T4 sequence (Q16288 32-839): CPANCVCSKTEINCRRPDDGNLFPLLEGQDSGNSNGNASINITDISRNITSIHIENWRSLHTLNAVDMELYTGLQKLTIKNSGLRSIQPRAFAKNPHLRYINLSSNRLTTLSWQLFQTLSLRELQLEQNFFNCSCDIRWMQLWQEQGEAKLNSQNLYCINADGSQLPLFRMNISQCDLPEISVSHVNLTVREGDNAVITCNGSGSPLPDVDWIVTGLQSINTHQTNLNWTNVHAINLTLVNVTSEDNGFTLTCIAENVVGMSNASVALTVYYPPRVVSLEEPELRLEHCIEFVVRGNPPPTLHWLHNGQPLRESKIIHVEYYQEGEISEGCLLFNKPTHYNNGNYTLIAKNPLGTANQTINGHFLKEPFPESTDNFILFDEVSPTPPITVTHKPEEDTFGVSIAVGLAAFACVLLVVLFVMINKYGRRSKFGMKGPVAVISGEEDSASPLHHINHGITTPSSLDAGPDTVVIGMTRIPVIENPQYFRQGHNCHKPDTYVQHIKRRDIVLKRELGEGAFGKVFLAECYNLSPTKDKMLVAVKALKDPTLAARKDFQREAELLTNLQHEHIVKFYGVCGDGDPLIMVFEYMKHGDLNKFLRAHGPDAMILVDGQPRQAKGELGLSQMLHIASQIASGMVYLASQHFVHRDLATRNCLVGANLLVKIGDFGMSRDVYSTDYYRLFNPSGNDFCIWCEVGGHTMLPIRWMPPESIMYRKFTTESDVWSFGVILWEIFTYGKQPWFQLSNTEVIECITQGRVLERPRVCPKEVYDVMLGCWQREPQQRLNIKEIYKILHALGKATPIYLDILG
T6 sequence (Q16288 whole entry, the tested form may be a part): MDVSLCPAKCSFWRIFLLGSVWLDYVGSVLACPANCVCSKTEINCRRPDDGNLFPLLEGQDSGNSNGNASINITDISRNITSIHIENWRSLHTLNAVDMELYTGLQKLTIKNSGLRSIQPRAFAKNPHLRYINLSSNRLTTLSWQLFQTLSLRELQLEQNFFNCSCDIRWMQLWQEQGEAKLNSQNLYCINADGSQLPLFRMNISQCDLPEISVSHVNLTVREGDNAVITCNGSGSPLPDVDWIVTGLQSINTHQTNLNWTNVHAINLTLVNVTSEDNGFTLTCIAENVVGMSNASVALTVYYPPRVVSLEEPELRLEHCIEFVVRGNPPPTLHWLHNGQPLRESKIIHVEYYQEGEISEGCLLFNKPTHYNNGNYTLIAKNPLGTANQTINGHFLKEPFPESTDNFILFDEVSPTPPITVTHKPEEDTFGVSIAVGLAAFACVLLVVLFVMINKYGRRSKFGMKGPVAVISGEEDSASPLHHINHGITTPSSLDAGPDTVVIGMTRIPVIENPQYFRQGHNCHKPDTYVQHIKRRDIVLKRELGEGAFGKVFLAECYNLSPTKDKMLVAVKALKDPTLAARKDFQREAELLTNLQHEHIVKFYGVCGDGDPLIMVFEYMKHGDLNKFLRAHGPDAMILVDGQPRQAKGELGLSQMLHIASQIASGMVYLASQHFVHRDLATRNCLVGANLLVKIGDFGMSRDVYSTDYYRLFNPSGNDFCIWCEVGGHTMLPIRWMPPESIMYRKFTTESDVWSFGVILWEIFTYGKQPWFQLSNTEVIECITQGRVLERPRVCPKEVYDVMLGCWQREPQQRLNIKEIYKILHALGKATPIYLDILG

The IC50 is the concentration at which inhibition is half-maximal. Higher therefore signals weaker potency in that assay. Regarding `Fc1cc(F)cc(Cc2ccc3[nH]nc(C#Cc4ccccn4)c3c2)c1` [CCB-484, 5-(3,5-difluorobenzyl)-3-(pyridin-2-ylethynyl)-1H-indazole], the IC50 against TRKA amounted to 34 nM; at BaF3-ETV6-NTRK2, 1970 nM; against TRKB, 83.8 nM; against TRKC, 11.8 nM; against BaF3-CD74-NTRK1 it was 820 nM; against BaF3-ETV6-NTRK3, 477 nM.

For the molecule `Fc1cc(F)cc(Cc2ccc3[nH]nc(/C=C/c4ccccn4)c3c2)c1` [CCB-489, (E)-5-(3,5-difluorobenzyl)-3-(2-(pyridin-2-yl)vinyl)-1H-indazole], the IC50 on TRKA is 4.6 nM; against BaF3-ETV6-NTRK2 it was 165 nM; on TRKB, 14.4 nM; against TRKC it was 2.7 nM; against BaF3-CD74-NTRK1 it was 146 nM; against BaF3-ETV6-NTRK3, 56.2 nM.

Turning to `Fc1cc(F)cc(Cc2ccc3[nH]nc(/C=C/c4cccnc4)c3c2)c1` [DYX-03, (E)-5-(3,5-difluorobenzyl)-3-(2-(pyridin-3-yl)vinyl)-1H-indazole], the IC50 on TRKA worked out at 4 nM; against BaF3-ETV6-NTRK2, 157 nM; against TRKB, 10.9 nM; at TRKC, 8.6 nM; at BaF3-CD74-NTRK1, 126 nM; against BaF3-ETV6-NTRK3, 75.2 nM.

With `Fc1cc(F)cc(Cc2ccc3[nH]nc(/C=C/c4cccs4)c3c2)c1` [DYX-04, (E)-5-(3,5-difluorobenzyl)-3-(2-(thiophen-2-yl)vinyl)-1H-indazole], the concentration for half-maximal inhibition (IC50) against TRKA turned out to be 21.8 nM; on BaF3-ETV6-NTRK2 it was 728 nM; against TRKB it was 32.4 nM; at TRKC, 5.1 nM; against BaF3-CD74-NTRK1, 174 nM; against BaF3-ETV6-NTRK3, 240 nM.

Regarding `Fc1cc(F)cc(Cc2ccc3[nH]nc(/C=C/c4cnccn4)c3c2)c1` [DYX-05, (E)-5-(3,5-difluorobenzyl)-3-(2-(pyrazin-2-yl)vinyl)-1H-indazole], the concentration for half-maximal inhibition (IC50) came out at 1.6 nM against TRKA; 678 nM at BaF3-ETV6-NTRK2; 10.9 nM against TRKB; 6 nM at TRKC; 580 nM at BaF3-CD74-NTRK1; 419 nM at BaF3-ETV6-NTRK3.

As for `Fc1cc(F)cc(Cc2ccc3[nH]nc(/C=C/c4ccc5ccccc5n4)c3c2)c1` [DYX-06, (E)-2-(2-(5-(3,5-difluorobenzyl)-1H-indazol-3-yl)vinyl)quinoline], the IC50 at TRKA stood at 14.1 nM; against BaF3-ETV6-NTRK2, 723 nM; against TRKB, 87.1 nM; against TRKC, 77.4 nM; on BaF3-CD74-NTRK1, 640 nM; against BaF3-ETV6-NTRK3 it was 492 nM.

`Fc1cc(F)cc(Cc2ccc3[nH]nc(/C=C/c4ccccc4)c3c2)c1` [DYX-07, (E)-5-(3,5-difluorobenzyl)-3-styryl-1H-indazole]: the IC50 at TRKA is 10.6 nM; against BaF3-ETV6-NTRK2, 968 nM; at TRKB, 40.3 nM; at TRKC, 104 nM; against BaF3-CD74-NTRK1 it was 211 nM; at BaF3-ETV6-NTRK3 it was 284 nM.

For `Cc1cccc(/C=C/c2n[nH]c3ccc(Cc4cc(F)cc(F)c4)cc23)n1` [DYX-09, (E)-5-(3,5-difluorobenzyl)-3-(2-(6-methylpyridin-2-yl)vinyl)-1H-indazole], the IC50 was determined as 10.6 nM at TRKA; 98.4 nM against BaF3-ETV6-NTRK2; 14.8 nM on TRKB; 4.2 nM against TRKC; 69 nM against BaF3-CD74-NTRK1; 168 nM against BaF3-ETV6-NTRK3.

Take `Fc1cc(F)cc(Cc2ccc3[nH]nc(/C=C/c4ccccc4F)c3c2)c1` [DYX-10, (E)-5-(3,5-difluorobenzyl)-3-(2-fluorostyryl)-1H-indazole]: the 50% inhibitory concentration (IC50) against TRKA was determined as 9.2 nM; on BaF3-ETV6-NTRK2 it was 777 nM; on TRKB it was 3.2 nM; against TRKC it was 18.8 nM; against BaF3-CD74-NTRK1, 630 nM; against BaF3-ETV6-NTRK3, 394 nM.

For `C(#Cc1n[nH]c2ccc(Cc3ccccc3)cc12)c1ccccn1` [DYX-014, 5-benzyl-3-(pyridin-2-ylethynyl)-1H-indazole], the IC50 against TRKA was 100 nM; on BaF3-ETV6-NTRK2 it was 4700 nM; on TRKB, 321 nM; against TRKC, 95 nM; against BaF3-CD74-NTRK1, 8310 nM; on BaF3-ETV6-NTRK3, 3030 nM.

Turning to `Fc1ccccc1Cc1ccc2[nH]nc(C#Cc3ccccn3)c2c1` [DYX-021, 5-(2-fluorobenzyl)-3-(pyridin-2-ylethynyl)-1H-indazole], the IC50 on TRKA stood at 110 nM; at BaF3-ETV6-NTRK2 it was 3090 nM; against TRKB, 360 nM; against TRKC, 79 nM; on BaF3-CD74-NTRK1, 4930 nM; at BaF3-ETV6-NTRK3, 2600 nM.

Regarding `Fc1cc(F)cc(Nc2ccc3[nH]nc(/C=C/c4ccccn4)c3c2)c1` [DYX-105, (E)-N-(3,5-difluorophenyl)-3-(2-(pyridin-2-yl)vinyl)-1H-indazol-5-amine], the IC50 against BaF3-ETV6-NTRK2 was found to be 2620 nM; on TRKB, 353 nM; at TRKC, 226 nM; at BaF3-ETV6-NTRK3 it was 2270 nM.

Consider `Fc1cc(F)cc(C#Cc2ccc3[nH]nc(/C=C/c4ccccn4)c3c2)c1` [DYX-183, (E)-5-((3,5-difluorophenyl)ethynyl)-3-(2-(pyridin-2-yl)vinyl)-1H-indazole], for which the half-inhibitory concentration (IC50) is 598 nM on TRKA; over 10000 nM against BaF3-ETV6-NTRK2; over 1000 nM against TRKB; over 10000 nM against BaF3-CD74-NTRK1; over 10000 nM against BaF3-ETV6-NTRK3.

Regarding `CCn1cc(/C=C/c2n[nH]c3ccc(NS(=O)(=O)c4cc(F)cc(F)c4)cc23)cn1` [Example D5218, (E)-3,5-difluoro-N-(3-(2-(1-ethyl-1H-pyrazol-4-yl)vinyl)-1H-indazol-5-yl)benzenesulfonamide], the IC50 was found to be 19.1 nM on BaF3-ETV6-NTRK2, 10.6 nM against BaF3-CD74-NTRK1 and 14.1 nM against BaF3-ETV6-NTRK3.

As to `O=S(=O)(Nc1ccc2[nH]nc(/C=C/c3cn[nH]c3)c2c1)c1cc(F)cc(F)c1` [Example D5220, (E)-3,5-difluoro-N-(3-(2-(1H-pyrazol-4-yl)vinyl)-1H-indazol-5-yl)benzenesulfonamide], the values for the IC50 at BaF3-ETV6-NTRK2, at BaF3-CD74-NTRK1 and on BaF3-ETV6-NTRK3 were 215 nM, 120 nM and 175 nM, respectively.

For the molecule `O=S(=O)(Nc1ccc2[nH]nc(/C=C/c3cnn(CCO)c3)c2c1)c1cc(F)cc(F)c1` [Example D5221, (E)-3,5-difluoro-N-(3-{2-[1-(2-hydroxyl-ethyl)-1H-pyrazol-4-yl]-vinyl}-1H-indazol-5-yl)-benzenesulfonamide], the figures for the IC50 against BaF3-ETV6-NTRK2, against BaF3-CD74-NTRK1 and on BaF3-ETV6-NTRK3 were 196 nM, 144 nM and 128 nM, respectively.

Take `O=S(=O)(c1cc(F)cc(F)c1)c1ccc2[nH]nc(/C=C/c3ccncc3)c2c1` [Example E01F02, (E)-5-((3,5-difluorophenyl)sulfonyl)-3-(2-(pyridin-4-yl)vinyl)-1H-indazole]: the 50% inhibitory concentration (IC50) at BaF3-ETV6-NTRK2 came out at 133 nM; against BaF3-CD74-NTRK1 it was 18.9 nM; against BaF3-ETV6-NTRK3 it was 40.7 nM.

Take `O=S(=O)(c1cc(F)cc(F)c1)c1ccc2[nH]nc(/C=C/c3ccccc3)c2c1` [Example E01F07, (E)-5-((3,5-difluorophenyl)sulfonyl)-3-styryl-1H-indazole]: the values for the half-inhibitory concentration (IC50) against BaF3-ETV6-NTRK2, at BaF3-CD74-NTRK1 and on BaF3-ETV6-NTRK3 were 441 nM, 35.8 nM and 92.9 nM, respectively.

Turning to `Cc1ccccc1/C=C/c1n[nH]c2ccc(S(=O)(=O)c3cc(F)cc(F)c3)cc12` [Example E01F08, (E)-5-((3,5-difluorophenyl)sulfonyl)-3-(2-methylstyryl)-1H-indazole], the IC50 against BaF3-ETV6-NTRK2 turned out to be 220 nM; against BaF3-CD74-NTRK1, 43.8 nM; at BaF3-ETV6-NTRK3 it was 82.9 nM.

Take `O=S(=O)(c1cc(F)cc(F)c1)c1ccc2[nH]nc(/C=C/c3ccccc3F)c2c1` [Example E01F10, (E)-5-((3,5-difluorophenyl)sulfonyl)-3-(2-fluorostyryl)-1H-indazole]: the IC50 at BaF3-ETV6-NTRK2 was 610 nM; at BaF3-CD74-NTRK1, 68.9 nM; against BaF3-ETV6-NTRK3, 156 nM.

For the origin of these results see patent publication US20220281821A1, “INDAZOLE COMPOUNDS AND THEIR PHARMACEUTICAL COMPOSITIONS” (Jinan University, priority 2019, published 2022).
